Source: patent US4652566A, “Benzofuran derivatives, processes for preparing the same and antihypertensive agents containing the same” (Kaken Pharmaceutical Co., Ltd., priority 1984, dated 1987)
Structures can show the parent of a compound that is named as a salt. Where two headings read alike, the source gives them in different places.

Assays:
[1] = Antihypertensive effect and effect on heart rate in spontaneously hypertensive rat (SHR); format: in vivo; conditions: po, single dose
Protocol: [Antihypertensive effect and effect on a heart rate on rat suffering from a spontaneously hypertensive rat (SHR)]
A blood pressure was measured under no anesthetic condition by means of an apparatus for recording a blood pressure of a tail artery and a heart rate (Riken Kaihatsu Co., Ltd.) (PS-802) and at the same time a heart rate was also measured.
Each of test compounds was dissolved or suspended in an aqueous solution containing 5% by weight of acasia and the obtained solution or suspension was administered once orally to SHR which had been kept under a fast condition for one night. A blood pressure and a heart rate were measured before administration and after one hour, three hours, five hours and seven hours of it and the maximum value of changes were calculated by comparing the value measured before administration with the value measured after administration.
For the purpose of a comparison, the same experiment as mentioned above was carried out on both Labetalol and Diltiazem as mentioned above.
With respect to a dosage, 100 mg/kg and 10 mg/kg as to compounds obtained by Examples 2, 5, 6, 9 and 18 to 23 were respectively administered, 100 mg/kg as to compounds obtained by Examples 1, 3, 4, 7 and 10 to 17 was respectively administered.

[2] = target: T1, calcium antagonism (thoracic aorta spiral specimen, contraction by calcium) (Cavia porcellus, UniProt O35505); assay: Calcium antagonistic effect (contraction response by calcium of spiral thoracic aorta specimen, Magnus method); design: species or system Hartly male giunea pig; conditions: guinea pig thoracic aorta, antagonism of calcium contraction; for Kb: read-out: Calcium antagonistic effect, pA2 value (converted)
T1 construct: from tissue; host or cells: thoracic aorta spiral strip of male Hartley guinea pig
T1 sequence (O35505 whole entry): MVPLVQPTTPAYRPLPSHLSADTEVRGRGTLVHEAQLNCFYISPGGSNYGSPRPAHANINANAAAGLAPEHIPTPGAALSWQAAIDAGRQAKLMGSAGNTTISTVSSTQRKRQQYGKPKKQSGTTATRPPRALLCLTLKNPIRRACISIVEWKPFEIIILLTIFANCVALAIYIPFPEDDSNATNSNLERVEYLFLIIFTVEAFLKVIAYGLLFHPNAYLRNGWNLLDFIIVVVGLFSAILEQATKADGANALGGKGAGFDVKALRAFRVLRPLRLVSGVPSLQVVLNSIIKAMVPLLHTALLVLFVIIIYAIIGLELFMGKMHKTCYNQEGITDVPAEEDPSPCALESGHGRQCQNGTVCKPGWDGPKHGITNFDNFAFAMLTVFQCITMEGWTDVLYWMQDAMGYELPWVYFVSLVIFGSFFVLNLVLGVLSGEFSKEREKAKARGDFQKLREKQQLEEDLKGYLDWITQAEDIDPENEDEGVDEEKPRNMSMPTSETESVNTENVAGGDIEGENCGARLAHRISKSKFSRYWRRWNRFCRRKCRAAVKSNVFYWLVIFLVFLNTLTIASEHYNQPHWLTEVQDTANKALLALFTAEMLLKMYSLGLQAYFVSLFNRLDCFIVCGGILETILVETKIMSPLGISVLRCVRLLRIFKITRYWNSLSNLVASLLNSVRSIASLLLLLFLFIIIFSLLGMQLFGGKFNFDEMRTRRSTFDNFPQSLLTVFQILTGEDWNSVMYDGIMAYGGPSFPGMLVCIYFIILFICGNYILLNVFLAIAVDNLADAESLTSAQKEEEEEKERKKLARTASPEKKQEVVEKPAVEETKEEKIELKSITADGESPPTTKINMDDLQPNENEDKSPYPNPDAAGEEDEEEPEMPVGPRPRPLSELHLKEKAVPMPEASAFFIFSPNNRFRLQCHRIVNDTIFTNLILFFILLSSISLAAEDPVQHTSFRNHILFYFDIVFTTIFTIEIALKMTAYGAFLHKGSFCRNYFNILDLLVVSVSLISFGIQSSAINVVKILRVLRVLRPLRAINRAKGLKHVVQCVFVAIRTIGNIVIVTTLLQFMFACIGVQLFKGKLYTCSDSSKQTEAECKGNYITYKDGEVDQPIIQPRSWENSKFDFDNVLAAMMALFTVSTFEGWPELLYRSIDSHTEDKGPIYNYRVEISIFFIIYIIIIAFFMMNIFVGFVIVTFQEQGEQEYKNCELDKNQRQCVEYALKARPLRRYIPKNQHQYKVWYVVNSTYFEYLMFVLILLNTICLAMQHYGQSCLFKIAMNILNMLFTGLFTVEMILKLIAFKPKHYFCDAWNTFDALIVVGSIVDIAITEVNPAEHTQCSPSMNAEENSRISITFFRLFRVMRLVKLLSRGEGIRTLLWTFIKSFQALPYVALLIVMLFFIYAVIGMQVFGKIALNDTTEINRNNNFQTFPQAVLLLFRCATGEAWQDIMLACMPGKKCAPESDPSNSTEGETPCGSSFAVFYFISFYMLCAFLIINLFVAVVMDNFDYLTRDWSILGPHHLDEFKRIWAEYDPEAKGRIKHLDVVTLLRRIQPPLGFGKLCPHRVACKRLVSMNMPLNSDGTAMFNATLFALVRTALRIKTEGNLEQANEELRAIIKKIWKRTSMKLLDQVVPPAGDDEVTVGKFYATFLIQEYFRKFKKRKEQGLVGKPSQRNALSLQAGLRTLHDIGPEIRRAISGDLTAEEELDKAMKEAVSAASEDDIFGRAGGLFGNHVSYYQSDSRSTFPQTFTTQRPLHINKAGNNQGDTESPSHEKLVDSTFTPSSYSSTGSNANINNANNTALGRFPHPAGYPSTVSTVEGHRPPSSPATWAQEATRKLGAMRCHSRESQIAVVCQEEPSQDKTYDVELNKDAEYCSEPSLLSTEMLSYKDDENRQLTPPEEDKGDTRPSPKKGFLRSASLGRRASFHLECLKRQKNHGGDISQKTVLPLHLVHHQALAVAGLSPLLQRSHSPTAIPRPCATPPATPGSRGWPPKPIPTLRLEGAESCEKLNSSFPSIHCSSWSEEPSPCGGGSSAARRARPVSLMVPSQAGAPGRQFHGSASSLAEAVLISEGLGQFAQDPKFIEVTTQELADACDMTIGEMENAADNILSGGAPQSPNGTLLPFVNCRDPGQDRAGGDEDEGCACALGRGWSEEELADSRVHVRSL
Protocol: [Calcium antagonistic effect]
Using a spiral blood vessel specimen taken from a thoracic aorta of Hartly male giunea pig weighed 400 to 600 g, a contraction response by calcium was measured as a dose-response curve according to Magnus method and the antagonistic activity for each test compound was indicated as above-mentioned pA2 value.

[3] = target: T2, α-adrenergic blockade (vas deferens specimen, contraction by noradrenalin) (Rattus norvegicus, UniProt P43140); assay: α-Adrenergic blockade effect (contraction response by noradrenalin of vas deferens specimen, Magnus method); design: species or system Wister male rat
T2 construct: from tissue; host or cells: vas deferens of six-week-old male Wistar rat
T2 sequence (P43140 1-466): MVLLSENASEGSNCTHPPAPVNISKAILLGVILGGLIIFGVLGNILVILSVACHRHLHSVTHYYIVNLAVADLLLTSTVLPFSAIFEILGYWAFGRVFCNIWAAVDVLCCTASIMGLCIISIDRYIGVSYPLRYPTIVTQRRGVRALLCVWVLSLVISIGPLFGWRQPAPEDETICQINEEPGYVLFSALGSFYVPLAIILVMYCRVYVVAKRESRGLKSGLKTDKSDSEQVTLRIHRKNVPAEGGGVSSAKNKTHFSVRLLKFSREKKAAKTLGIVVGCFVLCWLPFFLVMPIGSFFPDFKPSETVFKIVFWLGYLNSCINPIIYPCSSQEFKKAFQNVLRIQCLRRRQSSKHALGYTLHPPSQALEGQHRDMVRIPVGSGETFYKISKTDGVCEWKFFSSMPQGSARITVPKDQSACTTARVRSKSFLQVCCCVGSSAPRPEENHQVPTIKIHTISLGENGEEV

[4] = Accute toxicity test (LD50 value); conditions: mouse, in vivo; mice; single oral administration; deaths by seventh day; Litchfield-Wilcoxon
Protocol: [Accute toxicity test (LD50 value)]
The experiment was carried out using six weeks old ddy male mice.
Each of test compounds was suspended in an aqueous solution containing 5% by weight of acasia and the suspension was administered compulsorily once orally with a gastric probe. Within six hours after the start of the administration, the behavior of tested mice were observed consecutively. Thereafter, the observation was made at an interval of twenty four hours during 7 days and an accumulative number of deaths seventh day since the start of the administration was measured.
LD50 value was calculated according to the Litchfield-Wilcoxon method.

[5] = 100 mg/kg, maximum over 1, 3, 5, 7 hours (Table 3)
[6] = rat vas deferens, antagonism of noradrenalin contraction, pA2 = negative logarithm of antagonist dose shifting agonist curve two times, read-out: α-Adrenergic blockade effect, pA2 value (converted)
[7] = 10 mg/kg, maximum over 1, 3, 5, 7 hours (Table 2)
[8] = 100 mg/kg, maximum over 1, 3, 5, 7 hours (Table 2)
[9] = rat vas deferens, antagonism of noradrenalin contraction, pA2 = negative logarithm of antagonist dose shifting agonist curve two times

| SMILES | Kb [2] | Kb [3, 6] | LD50 at 168 h [4] | Maximum value of change, heart rate [1, 7] | Maximum value of change, systolic pressure [1, 7] | Maximum value of change, heart rate [1, 8] | Maximum value of change, systolic pressure [1, 8] | other results |
| --- | --- | --- | --- | --- | --- | --- | --- | --- |
| COc1ccccc1N1CCN(CC(O)COc2ccc3cc(C#N)oc3c2)CC1 (stereo not shown) [Ex. 17 (HCl salt), 2-cyano-6-{2-hydroxy-3-[4-(2-methoxyphenyl)piperazinyl]propoxy}benzofuran] | 115 nM | 204 nM | 900 mg/kg |  |  |  |  | Maximum value of change, heart rate [1, 5]: -154.5 ± 21.1 beats/min; Maximum value of change, systolic pressure [1, 5]: -40.5 ± 6.6 mmHg |
| COc1ccccc1N1CCN(CC(O)COc2cccc3cc(C(C)=O)oc23)CC1 (stereo not shown) [Ex. 2, 2-acetyl-7-{2-hydroxy-3-[4-(2-methoxyphenyl)piperazinyl]-propoxy}benzofuran] |  |  | > 1500 mg/kg | -121.7 ± 15 beats/min | -54.8 ± 11.2 mmHg | -155.6 ± 15.5 beats/min | -72.4 ± 8.9 mmHg |  |
| CCOC(=O)c1cc2cccc(OCC(O)CN3CCN(c4ccccc4OC)CC3)c2o1 (stereo not shown) [Ex. 18 (HCl salt), 2-ethoxycarbonyl-7-{2-hydroxy-3-[4-(2-methoxyphenyl)-piperazinyl]propoxy}benzofuran] | 209 nM | 74.1 nM | > 1000 mg/kg |  |  |  |  |  |
| COc1ccccc1N1CCN(CC(O)COc2cccc3cc(C(=O)O)oc23)CC1 (stereo not shown) [Ex. 21, 2-carboxy-7-{2-hydroxy-3-[4-(2-methoxyphenyl)piperazinyl]propoxy}benzofuran] |  |  |  | -5.8 ± 8.7 beats/min | -46.9 ± 6.3 mmHg | -25.7 ± 16.4 beats/min | -73.8 ± 9.9 mmHg |  |
| CC(=O)c1cc2cccc(OCC(O)CN3CCN(c4ccccc4C)CC3)c2o1 (stereo not shown) [Ex. 6 (HCl salt), 2-acetyl-7-{2-hydroxy-3-[4-(2-methylphenyl)-piperazinyl]propoxy}benzofuran] | 468 nM | 44.7 nM | > 1500 mg/kg |  |  |  |  |  |
| COc1ccccc1N1CCN(CC(O)COc2ccc3cc(C(C)=O)oc3c2)CC1 (stereo not shown) [Ex. 4 (HCl salt), 2-acetyl-6-{2-hydroxy-3-[4-(2-methoxyphenyl)piperazinyl]-propoxy}benzofuran] | 525 nM | 22.4 nM | > 1000 mg/kg |  |  |  |  | Maximum value of change, heart rate [1, 5]: -172.5 ± 23.9 beats/min; Maximum value of change, systolic pressure [1, 5]: -114.2 ± 1.7 mmHg |
| COc1ccccc1N1CCN(CC(O)COc2cccc3cc(C#N)oc23)CC1 (stereo not shown) [Ex. 16 (HCl salt), 2-cyano-7-{2-hydroxy-3-[4-(2-methoxyphenyl)piperazinyl]-propoxy} benzofuran] | 513 nM | 42.7 nM | 900 mg/kg |  |  |  |  | Maximum value of change, heart rate [1, 5]: -189.6 ± 26.8 beats/min; Maximum value of change, systolic pressure [1, 5]: -13.3 ± 4.6 mmHg |
| CC(=O)c1cc2cc(OCC(O)CN3CCN(c4ccccc4C)CC3)ccc2o1 (stereo not shown) [Ex. 7] |  |  |  | -45.0 ± 17.2 beats/min | -86.4 ± 8.6 mmHg | -51.3 ± 20.2 beats/min | -117.5 ± 12.6 mmHg |  |
| COc1ccccc1N1CCN(CC(O)COc2cccc3cc(C(=O)O)oc23)CC1 (stereo not shown) [Ex. 21 (HCl salt), 2-carboxy-7-{2-hydroxy-3-[4-(2-methoxyphenyl)piperazinyl]propoxy}benzofuran] | 3310 nM | 355 nM | > 1000 mg/kg |  |  |  |  |  |
| COc1ccc([C@@H]2Sc3ccccc3N(CCN(C)C)C(=O)[C@@H]2OC(C)=O)cc1 [Diltiazem, reference compound] |  |  |  | -140.0 ± 27.5 beats/min | -12.8 ± 5.7 mmHg | -136.7 ± 34.2 beats/min | -79.9 ± 11.6 mmHg | Maximum value of change, heart rate [1, 5]: -136.7 ± 34.2 beats/min; Maximum value of change, systolic pressure [1, 5]: -79.9 ± 11.6 mmHg |
| CCOC(=O)c1cc2cc(OCC(O)CN3CCN(c4ccccc4C)CC3)ccc2o1 (stereo not shown) [Ex. 20, 2-ethoxycarbonyl-5-{2-hydroxy-3-[4-(2-methylphenyl)-piperazinyl]propoxy}benzofuran] |  |  |  | -81.1 ± 22.2 beats/min | -57.5 ± 12.5 mmHg | -87.5 ± 17.7 beats/min | -80.7 ± 13.6 mmHg |  |
| CC(=O)c1cc2cc(OCC(O)CN3CCN(c4ccccc4C)CC3)ccc2o1 (stereo not shown) [Ex. 7 (HCl salt)] | 631 nM | 219 nM | > 2000 mg/kg |  |  |  |  |  |
| CCOC(=O)c1cc2cccc(OCC(O)CN3CCN(c4ccccc4OC)CC3)c2o1 (stereo not shown) [Ex. 18, 2-ethoxycarbonyl-7-{2-hydroxy-3-[4-(2-methoxyphenyl)-piperazinyl]propoxy}benzofuran] |  |  |  | -96.7 ± 35.1 beats/min | -35.8 ± 4.6 mmHg | -138.3 ± 25.4 beats/min | -65.1 ± 5.5 mmHg |  |
| CC(=O)c1cc2cccc(OCC(O)CN3CCN(c4ccccc4C)CC3)c2o1 (stereo not shown) [Ex. 6, 2-acetyl-7-{2-hydroxy-3-[4-(2-methylphenyl)-piperazinyl]propoxy}benzofuran] |  |  |  | -70.0 ± 20.3 beats/min | -71.7 ± 4.9 mmHg | -135.8 ± 17.0 beats/min | -90.3 ± 9.2 mmHg |  |
| COc1ccccc1N1CCN(CC(O)COc2ccc3oc(C(C)=O)cc3c2)CC1 (stereo not shown) [Ex. 5] |  |  |  | -49.2 ± 28.0 beats/min | -56.3 ± 6.0 mmHg | -143.4 ± 34.2 beats/min | -101.3 ± 5.2 mmHg |  |
| CCOC(=O)c1cc2cc(OCC(O)CN3CCN(c4ccccc4OC)CC3)ccc2o1 (stereo not shown) [Ex. 19, 2-ethoxycarbonyl-5-{2-hydroxy-3-[4-(2-methoxyphenyl)piperrazinyl]propoxy}benzofuran] |  |  |  | -68.4 ± 45.1 beats/min | -37.6 ± 9.0 mmHg | -73.4 ± 19.6 beats/min | -60.1 ± 10.8 mmHg |  |
| CCOC(=O)c1cc2cc(OCC(O)CN3CCN(c4ccccc4OC)CC3)ccc2o1 (stereo not shown) [Ex. 19 (HCl salt), 2-ethoxycarbonyl-5-{2-hydroxy-3-[4-(2-methoxyphenyl)piperrazinyl]propoxy}benzofuran] |  |  | > 1500 mg/kg |  |  |  |  | Calcium antagonistic effect, pA2 value [2]: 5.28 ± 0.14; α-Adrenergic blockade effect, pA2 value [3, 9]: 6.72 ± 0.03 |
| CC(CCc1ccccc1)NCC(O)c1ccc(O)c(C(N)=O)c1 (stereo not shown) [Labetalol, reference compound] |  |  |  | -122.5 ± 37.5 beats/min | -32.9 ± 12.9 mmHg | -125.2 ± 25.6 beats/min | -55.0 ± 9.1 mmHg | Maximum value of change, heart rate [1, 5]: -125.2 ± 25.6 beats/min; Maximum value of change, systolic pressure [1, 5]: -55.0 ± 9.1 mmHg; Kb [3]: 1510 nM |
| CCOC(=O)c1cc2cc(OCC(O)CN3CCN(c4ccccc4C)CC3)ccc2o1 (stereo not shown) [Ex. 20 (HCl salt), 2-ethoxycarbonyl-5-{2-hydroxy-3-[4-(2-methylphenyl)-piperazinyl]propoxy}benzofuran] |  |  | > 1500 mg/kg |  |  |  |  | Calcium antagonistic effect, pA2 value [2]: 4.88 ± 0.70; α-Adrenergic blockade effect, pA2 value [3, 9]: 6.46 ± 0.09 |
